Data set [1] deals with methicillin-resistant Staphylococcus aureus (MRSA). Nature of the data set: Bactericidal assay (MBC), subculture of dilutions on TSB agar. The note with it: challenge with 1×10^4 MRSA. The data set is classed as cell-based.
Procedure: S. aureus maintained as a frozen culture with 10% (v/v) glycerol at −80° C. was thawed and then propagated on trypticase soy broth (TSB) or agar plates at room temperature (R.T.); determinations for Most Probable Number (MPN) in given samples were performed at 37° C., using standard assay techniques.
Tested sanitizers comprised commercially available gel products (i.e., “Brand A” and “Brand B”) from two manufacturers; these gels were comprised substantially of ethanol (60-70% w/w). […] Additional prototype liquid preparations (“Brand C1” and “Brand C2”) were substantially comprised of mixtures of alcohol (60-70% ethanol or isopropanol, w/w) combined with triclosan (approximately 0.04% w/w). Finally, triclosan was added to certain of the commercially available products (Brand B) to yield modified products containing triclosan at a level of approximately 0.04% w/w (“Brand B1”).
Killing of bacteria at each dilution (i.e., minimum bactericidal concentration, MBC) was determined by removing 5 μL aliquots and subculturing these on the surface of a TSB agar plate. Plates were incubated overnight at 37° C. and observed for growth. Studies were performed at 30 sec, at 5, 10, and 30 min, and at 1, 2, 4, and 8 hours after adding the challenge bacteria.
Data set [2] relates to E. coli. The following applies: against E. coli; Johnson et al. 2002; cited from earlier work.
The conditions of data set [3]: topically-applied; cited from earlier work.
The conditions of data set [4]: cited from earlier work.
For data set [5], the system named is bacterial counts on hands. The following applies: Triclosan (0.1%), after a 1-minute hygienic handwash; cited from earlier work.
The test system of data set [6] is bacteria. The following applies: MMWR/RR-16; cited from earlier work.
For data set [7], the system named is S. aureus. The following applies: against S. aureus; Johnson et al. 2002; cited from earlier work.

In brackets after ≈: the same amount, converted by molar mass.

The MBC is the smallest concentration meeting the test's criterion for killing. In the case of `Oc1cc(Cl)ccc1Oc1ccc(Cl)cc1Cl` [Triclosan, 2,4,4′-trichloro-2′-hydroxy-diphenyl ether], in data set [1], the “dilution at which preparation is still bactericidal” value was not above 10 fold. For the same compound, the MBC is 1.3 µg/mL (≈ 4.49 µM) in data set [2] and 7.5 µg/mL (≈ 25.9 µM) in data set [7]. Also, the “penetration into human skin” value in data set [3] is “minimal penetration into human skin”. For the same compound, the solubility in water result in data set [4] is “substantially insoluble in water”. The “reduction of bacterial counts on hands” value in data set [5] is 2.8 log10. Moreover, in data set [6], the minimum bactericidal concentrations was 25 to 500 µg/mL.

The record behind these values is US20040214785A1, “Surface sanitizing compositions with improved antimicrobial performance” (priority 2003, published 2004).
